Experimental data reported in patent US20100099714A1, “AMPA and NMDA Receptor Antagonists for Neurodegenerative Diseases” (Eisai R&D Management Co., Ltd., priority 2007, published 2010).

Columns and labels:
Cortical cell cultures = assay: NMDA and kainate-induced toxicity, MTT assay of cell viability; format: cell-based, rat; conditions: for protection of neuron from excitotoxicity induced by combination treatment with kainate and NMDA: 100 μM NMDA and 100 μM kainate for 24 h, monotherapy, FIG. 1A, B
Method: Cortical cell cultures were prepared from fetal rats of the Wistar strain (gestational age of 17 to 19 days, Charles River Japan, Kanagawa, Japan). The cortex was dissected and kept in Neurobasal medium (Invitrogen Corp., Carlsbad, Calif., USA) containing 2% B27 supplement (Invitrogen), 25 μM 2-mercaptoethanol (Wako), 0.5 mM L-glutamine (Invitrogen) and ×1/100 volume of antibiotic-antimycotic (Invitrogen), then incubated at 37° C. for 30 min in Ca^2+/Mg^2+ free Hank's balanced salt solution (MSS; 10 mM HEPES, pH 7.3) containing 0.25% trypsin (Invitrogen) and 0.2 mg/ml deoxyribonuclease (DNase) (Sigma). The cortical tissues were dissociated to single cells by gentle trituration. The cell suspension was centrifuged at 310×g for 3 min and the resulting pellets were resuspended in the medium described above.
The cells were plated at an initial cell density of 5×10^5 cells/cm^2 in poly-L-lysine (Sigma)-coated 96-well plates. The cells were cultured in a CO2 incubator (5% (v/v), at 37° C. in the Neurobasal medium described above for 7 days, and cultured following 4 days in culture medium without antioxidant B27 supplement and 2-mercaptoethanol. The cultures were exposed to 100 μM of N-methyl-D-aspartate (NMDA)(Sigma) and 100 μM of kainate (Sigma) for 24 h at 37° C. The cells were treated with perampanel (0.03, 0.3, 3 or 30 μM) and memantine HCl (0.1, 1, 10 or 100 μM) for 24 h before and during the exposure to these agonists. In the combination experiment, perampanel at […] or memantine at 10 μM or its combination was used.
Viability of cells grown in 96-well plates was measured by 3-[4,5-dimethylthylthiazol-2-yl]-2,5-diphenyltetrazolium bromide (MTT) assay. The 10 μl of 8 mg/ml MTT (Sigma) solution in D-PBS(−) (Dulbecco's phosphate-buffered saline, Sigma) was added to each well. During 10 min incubation at 37° C., the active dehydrogenase in viable mitochondria reduces the tetrazolium ring of MTT, forming a blue-colored precipitate. The cells were lysed and the precipitate was dissolved in […] of MTT solubilizing buffer containing 20% sodium dodecyl sulfate (SDS: Wako) in 50% N,N-dimethyl formamide at pH 4.7, and quantified spectrophotometrically at 550-690 nm.
Wells without cells, containing only the medium and MTT solution, were measured to obtain the background value, which was subtracted from measured values at 550-690 nm, as follows: % of Recovery=(sample−NMDA/Kainate treated control)/(non-treated control−NMDA/Kainate treated control)×100.
The data were analyzed with one-way analysis of variance (ANOVA) followed by Dunnett's multiple comparison test using the software package SAS ver. 8.2 (SAS Institute Japan Ltd., Tokyo, Japan).

[1] = 40 mg/day compared to 20 mg/day; cited from earlier work
[2] = Pharmacokinetic study of memantine, plasma concentration after single dose; format: in vivo, human; conditions: corresponds to 20-25 ng/ml at 20 mg single dose
Method: The efficacy of memantine in a variety of dementias has been shown in clinical trials. Memantine is considered to be a promising neuroprotective drug for the treatment of dementias, particularly Alzheimer's disease (Jain K K, Evaluation of memantine for neuroprotection in dementia. Expert Opin Investig Drugs 2000; 9(6): 1397-406.). Clinical dosage of mamentine is 20 mg/day. Maximal plasma concentration of memantine at 20 mg was at around 20-25 ng/ml after single dose treatment (Periclou A, et al., Pharmacokinetic study of memantine in healthy and renally impaired subjects. Clin Pharmacol Ther 2006; 79: 134-43.). This plasma concentration roughly correspond to 0.1 μM.

Alzheimer's disease = Alzheimer's disease trials; cited from earlier work
[3] = 20 mg, single dose treatment; cited from earlier work
[4] = clinically relevant concentration, roughly 0.1 μM

SMILES	protection of neuron from excitotoxicity induced by combination treatment with kainate and NMDA (Cortical cell cultures)	effect size at clinically relevant concentration (Cortical cell cultures; [4])	neuroprotective effect at clinically relevant concentration (Cortical cell cultures; [4])	risk of adverse event [1]	plasma concentration converted to molar [2] [nM]	clinical effect (Alzheimer's disease)	Maximal plasma concentration [3] [ng/mL]	shape of the neuroprotective effect over concentration (Cortical cell cultures; 100 μM NMDA and 100 μM kainate)
C[C@]12CC3C[C@](C)(C1)C[C@@](N)(C3)C2 [memantine, 1-amino-3,5-dimethyl-adamantane]	protected neuron from excitotoxicity	small and far below maximal effect	significant neuroprotective effect	higher risk of adverse event	~100	modest	20 to 25	
N#Cc1ccccc1-c1cc(-c2ccccn2)cn(-c2ccccc2)c1=O [perampanel, 2-(2-oxo-1-phenyl-5-pyridin-2-yl-1,2-dihydropyridin-3-yl)benzonitrile]	protected neuron from excitotoxicity							ceiling on the effect from lowest concentration showing neuroprotection
